We go through two compounds from patent US20200061150A1, “METHOD OF INDUCING SELECTIVE PROSTATE GLANDULAR PHARMACO-ABLATION WITH SPARING OF NERVES AND PRESERVATION OF SEXUAL FUNCTION” (Nymox Corporation, priority 2018, published 2020).

Series [1] deals with rat prostate. The experiment in a line: Prostate volume in rats after intraprostatic (whole gland) injection. The series is classed as in vivo, Sprague-Dawley rats. Conditions: control injection 0.5 mL HCl in water pH 3.0-5.0, 24 hr-10 days. As for the experimental part: (§1) Two month old Sprague-Dawley rats (n=268) weighing 200 to 300 g, housed in groups of 2-5 per cage at room temperature (24-26° C.), with standard unrestricted diet and water, were anesthetized with ether and underwent open laparoscopic injections, using sterile precautions and sterile techniques, without antibiotics, of 0.3 mL of FT 0.1-2.0 mg/mL in phosphate buffered saline (PBS) pH 7.4, administered by #26 gauge sterile needles attached to sterile syringes. The animals received a “whole gland” injection in an amount roughly 20 times the amount previously administered to humans. […] The rats were daily observed and painlessly sacrificed after post-treatment intervals of 24 hours to 12 months under either anesthesia.
(§2) Sub-groups of rats received repeated injections (2×-8×, on a once weekly basis) (Table 1).
(§3) Apoptosis was evaluated microscopically in H&E stained sections, including rats sacrificed after 24, 48, and 72 hours, 4-8 days, and 1, 3, 6, and 12 months. […] TUNEL staining was assessed in 21 animals (72 hours; 7 days, post-treatment). Prostate volume (calculated by approximation to a sphere using the mean of 8 perpendicular diameters (2 per section at 90 degrees; on four sections) and calculations of 4/3 π(D/2)^3) were assessed in all animals and all controls. […]

For series [2], the system named is rat prostate glandular epithelium, nerves, stroma, vessels. As to the kind of experiment: Prostate histology (H&E, Bielschowsky silver, TUNEL) in treated rats. The series is classed as in vivo, Sprague-Dawley rats. As for the experimental part: as §1
Prostate glands were removed, bisected, and immersed in 10% formalin solution, and subsequently embedded in paraffin, sectioned, and stained with (1) hematoxylin-eosin (H&E); (2) Bielschowsky silver method for nerve fibers; and (3) immunohistochemical TUNEL staining. TUNEL (Terminal deoxynucleotidyl transferase (dUTP) nick end labeling) detects DNA fragmentation by labeling the 3′-hydroxyl termini in the double-stand DNA breaks generated during apoptosis. Prostate cell lines (PC3 and LNCAP) were treated with FT 0.001 or 0.25 mg/mL in 6, 24, and 48 well plates and harvested and pelleted at 0, 12, 24, and 48 hours. […] The same treated cell lines under the same conditions were also stained in vitro after treatment using Annexin V immunofluorescence methods and viewed under ultraviolet light, and cell loss in vitro was assessed quantitatively (Multitox-Fluor, Promega). […]
as §3

The conditions of series [3]: in vivo.
Source text: as §2

Where a name gives a salt, the structure may show the parent alone. Read-outs that look alike come from different tables or passages of the source. No end group written: not given here.

With `Cl` [HCl, reference compound], the “Prostate Volume mm^3-Mean (SD)” value in series [1] is recorded as 859.7 (278.1) mm^3. Besides, in series [2] (HCl pH 3.0-5.0 injected, involving <5% of the cross-sectional area), the “rats with focal ischemic or hemorrhagic infarctions and necrosis” value was 2/12.

On to “IDQQVLSRIKLEIKRCL [FT, Ile-Asp-Gln-Gln-Val-Leu-Ser-Arg-Ile-Lys-Leu-Glu-Ile-Lys-Arg-Cys-Leu]”, for which the toxic effects result in series [3] (dog), in series [3] (rabbit) and in series [3] (rat) was “no toxic effects” in each case. Moreover, the “nerves and blood vessels” value in series [2] (all time intervals) is “intact”. Besides, the nerve histology entry in series [2] (all time points including 6 months and 1 year) is given as “normal appearing nerves”.
